{"source": "paper PMC7381740", "about": "(Theranostics, 2020)", "key": {"[1]": {"assay": "Metabolite analysis in plasma and brain (radio-HPLC after i.v. injection)", "assay_type": "in vivo, rat", "method": "Blood samples were collected at 1, 2, 5 min post-injection and at 10, 20, 40 or 60 min post-injection when the animals were sacrificed. Seven animals used for metabolites analysis were also scanned for 60 min. Plasma was isolated by centrifugation (3 min, 3000 × g at 4 °C). Two hundred µL of CH3CN was added to 200 µL of serum for protein precipitation and after centrifugation (3 min, 3000 × g at 4 °C), 100 µL of supernatant was injected into the HPLC for quantification (HPLC equipment: Shimadzu prominence with a UV detector and bespoke Scintillation detector; column: ACE 3 C18 HL, [Hichrom], 150 × 4.6 mm; porosity: 3 μm; solvent A: 0.1 M ammonium acetate; solvent B: CH3CN, isocratic elution: 50:50 (A/B) in 15 min; flow rate: 1 mL/min; room temperature; absorbance detection at λ = 254 nm). Animal brains were removed and then homogenised by ultra-Turrax® in 2 mL of ice-cold acetonitrile. After centrifugation (3 min, 9000 × g at 4 °C), the supernatant was separated from the pellet. One hundred microliters of brain supernatant were injected on the HPLC column (same conditions as above). Control samples were spiked with 15 µL of stable standard. The parent radiotracer eluted at 11 minutes."}, "S1R [2]": {"molecular_target": "T1, S1R (Homo sapiens, UniProt Q99720)", "T1 construct": "Post-mortem brain tissues of 23 cases (8 men and 15 women) were obtained from the Manchester Brain Bank; from tissue; host or cells: post-mortem human frontal and temporal cortex (Manchester Brain Bank)", "T1 sequence (Q99720 whole entry)": "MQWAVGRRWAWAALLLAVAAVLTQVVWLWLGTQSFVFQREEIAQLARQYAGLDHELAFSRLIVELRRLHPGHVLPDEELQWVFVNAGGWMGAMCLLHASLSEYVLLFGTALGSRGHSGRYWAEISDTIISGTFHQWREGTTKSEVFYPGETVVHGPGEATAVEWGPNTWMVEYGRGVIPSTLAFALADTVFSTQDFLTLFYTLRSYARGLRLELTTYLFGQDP", "assay": "Autoradiography in post-mortem human cortex (controls, subclinical AD, AD)", "assay_type": "binding", "text": "Post-mortem brain tissues of 23 cases (8 men and 15 women) were obtained from the Manchester Brain Bank through appropriate consenting procedures for collection and use of the human brain tissues. Pathological diagnoses were made by an experienced neuropathologist (DM) as previously described, [48] and were in accordance with recent National Institute on Ageing - Alzheimer's Association guidelines for the neuropathological assessment of AD [49]. By such classification, only cases with Braak stages 5 and 6 were classed as definite AD. Cases with Braak Stages >2 & ≤4 were not diagnosed as definite AD, but these could be considered as cases of possible (incipient) AD, thereby representing cases with early changes of AD. Amyloid plaque load per se was not employed for classification of AD, although it is acknowledged that neuritic plaque scores do form the basis of CERAD classification. Clearly, in terms of amyloid plaques alone, there was overlap in amyloid load between cases at Braak stage >2 & ≤4 and those at Braak stages 5 and 6. Subjects were therefore split in three groups based on their Braak stages: controls (Braak ≤2, 8 subjects), subclinical AD (Braak >2 & ≤4, 8 subjects) and AD (Braak >4, 7 subjects). Details of each case are described in Table 1. […] These were obtained from aged patients with no history of neurological disease and no pathological evidence of AD or other degenerative brain disease. […] The average post-mortem delay was also similar for all groups (mean ± SD [min.-max.]: 34.9 ± 11.3 [12]-[46]; 35.8 ± 9.9 [25]-[48] and 41.5 ± 14.2 [24]-[64] hours for controls, subclinical AD and AD groups, respectively). Subsequently to the autoradiography experiments, measurements from frontal cortex of case #3 were not included as the sections had been damaged during the experiments (Table 1).\nSections of frontal (Brodmann areas 8/9) and temporal cortex (Brodmann areas 21/22) were cut from frozen human tissue blocks. Human and rodents sections were mounted on to glass slides (SuperFrost Plus Gold and SuperFrost Plus slides, Thermo Fisher Scientific Inc., MA, USA for human and animal tissues, respectively). For all steps described below, Tris buffer (Trizma pre-set crystals (Sigma, UK), 50 mM, with 120 mM NaCl, with pH adjusted to 7.4 at 4 °C or room temperature) was used. Slides were allowed to defrost then pre-incubated in Tris Buffer at 4 °C for 5min. […] Adjacent sections were incubated with the same solution containing an excess of unlabelled IAM6067 (2 µM) to assess non-specific binding. Next the slides were washed 2 × 2 min in Tris buffer at 4 °C, followed by a quick rinsing in distilled water at 4 °C. Slides were then dried promptly before exposition on Phosphor-Imager plates overnight. Autoradiographs were analysed using AIDA software (Raytest GmbH, Germany). […] Specific binding (total binding minus non-specific binding) in each ROI is expressed as intensity of the photostimulated luminescence (PSL) per pixel.\nSpecific binding for human autoradiography across the three groups in both frontal and temporal cortex and for grey and white matter was analysed by mixed-model fitting (brain structures as repeated factor). As this analysis only returned an effect for the brain structures factor and not for the Braak stage, a Sidak's post-hoc test comparing brain regions only was performed."}, "σ1 receptor (S1R)": {"molecular_target": "σ1 receptor (S1R)", "conditions": "cited from earlier work"}, "S1R [3]": {"molecular_target": "S1R (Rattus norvegicus, UniProt Q9R0C9)", "sequence (Q9R0C9 whole entry)": "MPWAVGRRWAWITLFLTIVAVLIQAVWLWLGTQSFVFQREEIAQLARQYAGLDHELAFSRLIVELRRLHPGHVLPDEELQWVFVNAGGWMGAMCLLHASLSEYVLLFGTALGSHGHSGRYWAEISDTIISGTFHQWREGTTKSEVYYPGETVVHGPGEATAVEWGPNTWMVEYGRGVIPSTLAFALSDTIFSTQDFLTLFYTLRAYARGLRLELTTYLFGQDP", "assay": "PET-CT brain uptake at baseline", "conditions": "for maximum brain uptake: PET time-activity curve; for average uptake (sum-image 20-60 min post-injection): baseline", "procedure": "Sixty minutes PET scans were performed on 23 animals on a Siemens Inveon® PET/CT scanner (Injected dose: 38±11MBq). Eight of them were used for basal uptake. […] Animals scanned on multiple occasions (with/without blocking or different blocking agent) were always scanned at least 24 h apart. […] Animal respiration and temperature were controlled using a pressure-sensitive pad and rectal probe (BioVet, m2m Imaging Corp., Cleveland, OH, USA) and body temperature was maintained at 37 ± 0.7 °C via the interface managed by the BioVet system. […] Briefly, a CT scan was performed prior to the PET acquisition for attenuation correction. The list mode emission data were histogrammed into 3D sinograms of 35 dynamic frames, normalized, corrected for dead-time, attenuation, scatter and radioactive decay, and reconstructed using OSEM3D (16 subsets and 4 iterations) into images of dimensions 128 × 128 × 159 voxels of volume 0.776 × 0.776 × 0.796 mm^3.\nPET-CT images were co-registered with the rat MRI template and its associated intracranial mask as published by Schwarz et al. [41] and generously provided by GSK. To co-register the MRI template and PET-CT images, individual brain masks were delineated on each CT image and co-registered with the MRI brain mask using rigid registration with mutual information. Image analysis and quantification was performed using the BrainVisa/Anatomist software (http://www.brainvisa.info) using the geometric transfer matrix (GTM) and ROIopt methods for partial volume correction both described and used previously [42]-[46]. […] PET data were expressed as SUV."}}}
{"compound": "FCCOc1ccc(CN2CCN(Cc3cc4ccccc4o3)CC2)cc1", "note": "[^18F-IAM6067, N-(2-Benzofuranylmethyl)-N'-[4-(2-fluoroethoxy)benzyl]piperazine]", "values": [{"measurement": "Percentage of ^18F-IAM6067 and metabolites", "setting": "[1]; rat brain, 10 min post-injection", "result": "91.3±3.7", "unit": "%"}, {"measurement": "Percentage of ^18F-IAM6067 and metabolites", "setting": "[1]; rat brain, 20 min post-injection", "result": "94.1±2.8", "unit": "%"}, {"measurement": "Percentage of ^18F-IAM6067 and metabolites", "setting": "[1]; rat brain, 60 min post-injection", "result": "91.3±6.0", "unit": "%"}, {"measurement": "Percentage of ^18F-IAM6067 and metabolites", "setting": "[1]; rat plasma, 1 min post-injection", "result": "88.8±12.1", "unit": "%"}, {"measurement": "Percentage of ^18F-IAM6067 and metabolites", "setting": "[1]; rat plasma, 2 min post-injection", "result": "58.3±4.1", "unit": "%"}, {"measurement": "Percentage of ^18F-IAM6067 and metabolites", "setting": "[1]; rat plasma, 5 min post-injection", "result": "22.4±11.6", "unit": "%"}, {"measurement": "Percentage of ^18F-IAM6067 and metabolites", "setting": "[1]; rat plasma, 10 min post-injection", "result": "~10", "unit": "%"}, {"measurement": "Percentage of ^18F-IAM6067 and metabolites", "setting": "[1]; rat plasma, 10 min post-injection, listed as Parent", "result": "10.1±8.6", "unit": "%"}, {"measurement": "Percentage of ^18F-IAM6067 and metabolites", "setting": "[1]; rat plasma, 20 min post-injection", "result": "~10", "unit": "%"}, {"measurement": "Percentage of ^18F-IAM6067 and metabolites", "setting": "[1]; rat plasma, 20 min post-injection, listed as Parent", "result": "9.8±4.2", "unit": "%"}, {"measurement": "Percentage of ^18F-IAM6067 and metabolites", "setting": "[1]; rat plasma, 60 min post-injection", "result": "not detectable"}, {"measurement": "Percentage of ^18F-IAM6067 and metabolites", "setting": "[1]; rat plasma, 60 min post-injection, listed as Parent", "result": 0.0, "unit": "%"}, {"measurement": "specific binding", "setting": "S1R [2]; human frontal grey matter, AD (Braak >4)", "result": "3.27 ± 0.90", "unit": "PSL/pixel"}, {"measurement": "specific binding", "setting": "S1R [2]; human frontal grey matter, controls (Braak ≤2)", "result": "2.37 ± 1.09", "unit": "PSL/pixel"}, {"measurement": "specific binding", "setting": "S1R [2]; human frontal grey matter, subclinical AD (Braak >2 & ≤4)", "result": "3.11 ± 0.84", "unit": "PSL/pixel"}, {"measurement": "specific binding", "setting": "S1R [2]; human temporal grey matter, AD (Braak >4)", "result": "2.91 ± 1.20", "unit": "PSL/pixel"}, {"measurement": "specific binding", "setting": "S1R [2]; human temporal grey matter, controls (Braak ≤2)", "result": "2.56 ± 1.24", "unit": "PSL/pixel"}, {"measurement": "specific binding", "setting": "S1R [2]; human temporal grey matter, subclinical AD (Braak >2 & ≤4)", "result": "2.98 ± 1.15", "unit": "PSL/pixel"}, {"measurement": "Ki", "setting": "σ1 receptor (S1R)", "result": 2.6, "unit": "nM"}, {"measurement": "maximum brain uptake", "setting": "S1R [3]; amygdala", "result": 3.3, "unit": "SUV"}, {"measurement": "average uptake (sum-image 20-60 min post-injection)", "setting": "S1R [3]; caudate/putamen", "result": "2.3 ± 0.1", "unit": "SUV"}, {"measurement": "average uptake (sum-image 20-60 min post-injection)", "setting": "S1R [3]; cingulate cortex", "result": "2.3 ± 0.2", "unit": "SUV"}, {"measurement": "average uptake (sum-image 20-60 min post-injection)", "setting": "S1R [3]; mesencephalic region", "result": "4.7 ± 0.3", "unit": "SUV"}, {"measurement": "average uptake (sum-image 20-60 min post-injection)", "setting": "S1R [3]; pons-raphe", "result": "6.4 ± 0.8", "unit": "SUV"}, {"measurement": "average uptake (sum-image 20-60 min post-injection)", "setting": "S1R [3]; substantia nigra", "result": "3.8 ± 0.7", "unit": "SUV"}, {"measurement": "average uptake (sum-image 20-60 min post-injection)", "setting": "S1R [3]; temporal cortex", "result": "2.5 ± 0.2", "unit": "SUV"}, {"measurement": "average uptake (sum-image 20-60 min post-injection)", "setting": "S1R [3]; thalamus medio-dorsal", "result": "3.9 ± 0.4", "unit": "SUV"}, {"measurement": "time of maximum brain uptake", "setting": "S1R [3]; post-injection, amygdala and thalamus medio-dorsal", "result": 2.25, "unit": "min"}, {"measurement": "maximum brain uptake", "setting": "S1R [3]; thalamus medio-dorsal", "result": 5.5, "unit": "SUV"}]}
